Test results: ChEMBL document CHEMBL4417631, “Oral peptide inhibitors of interleukin-23 receptor and their use to treat inflammatory bowel diseases” (2017)
Calls of active or inactive are those of the source. No cut-off for these calls is given here.

What was measured:
[1] = system: Rattus norvegicus; experiment: Anti-colitis activity in Sprague-Dawley rat model of DSS-induced colitis assessed as improvement in hematocrit scores level at 30 mg/kg, po dosed 3 times per day; format: functional, organism-based
[2] = system: Rattus norvegicus; experiment: Anti-colitis activity in Sprague-Dawley rat model of DSS-induced colitis assessed as improvement in stool consistency scores level at 30 mg/kg, ip dosed 3 times per day; format: functional, organism-based
[3] = system: Rattus norvegicus; experiment: Anti-colitis activity in Sprague-Dawley rat model of DSS-induced colitis assessed as reduction in colon macroscopic scores at 30 mg/kg, ip dosed 3 times per day; format: functional, organism-based
[4] = system: Rattus norvegicus; experiment: Anti-colitis activity in Sprague-Dawley rat model of DSS-induced colitis assessed as colon weight/colon length ratio at 30 mg/kg, po dosed 3 times per day (124.36 +/- 17.11 g/cm); format: functional
[5] = system: PBMC; experiment: Inhibition of IL12-stimulated IFNgamma production in PHA-activated human PBMC at 0.0001 to 100 uM by ELISA; format: functional, cell-based
[6] = system: Rattus norvegicus; experiment: Anti-colitis activity in Sprague-Dawley rat model of DSS-induced colitis assessed as improvement in stool consistency scores level at 30 mg/kg, po dosed 3 times per day; format: functional, organism-based
[7] = system: Rattus norvegicus; experiment: Anti-colitis activity in Sprague-Dawley rat model of DSS-induced colitis assessed as improvement in hematocrit scores level at 30 mg/kg, ip dosed 3 times per day; format: functional, organism-based
[8] = system: Rattus norvegicus; experiment: Anti-colitis activity in Sprague-Dawley rat model of DSS-induced colitis assessed as reduction in colon macroscopic scores at 30 mg/kg, po dosed 3 times per day; format: functional, organism-based
[9] = system: Rattus norvegicus; experiment: Anti-colitis activity in Sprague-Dawley rat model of DSS-induced colitis assessed as change in body weight at 30 mg/kg, po dosed 3 times per day (-6.39 +/- 1.11%); format: functional
[10] = system: Rattus norvegicus; experiment: Anti-colitis activity in Sprague-Dawley rat model of DSS-induced colitis assessed as reduction in disease activity index at 30 mg/kg, po dosed 3 times per day; format: functional
[11] = system: Rattus norvegicus; experiment: Anti-colitis activity in Sprague-Dawley rat model of TNBS-induced colitis assessed as improvement in histological scores at 160 mg/kg/day, po starting 24 hrs before TNBS injection by H and E staining based histological assay; format: functional, organism-based
[12] = system: PBMC; experiment: Inhibition of IL12-stimulated IFNgamma production in PHA-activated human PBMC by ELISA; format: functional, cell-based
[13] = Half life in simulated gastric fluid at 20 uM by LC-MS/MS analysis; format: ADME
[14] = target: T1, Interleukin-23 receptor (Homo sapiens, UniProt Q5VWK5); experiment: Inhibition of interleukin-23 receptor in human DB cells assessed as reduction in IL-23-stimulated STAT3 phosphorylation incubated for 30 mins by HTRF assay; format: cell-based
T1 sequence (Q5VWK5 whole entry): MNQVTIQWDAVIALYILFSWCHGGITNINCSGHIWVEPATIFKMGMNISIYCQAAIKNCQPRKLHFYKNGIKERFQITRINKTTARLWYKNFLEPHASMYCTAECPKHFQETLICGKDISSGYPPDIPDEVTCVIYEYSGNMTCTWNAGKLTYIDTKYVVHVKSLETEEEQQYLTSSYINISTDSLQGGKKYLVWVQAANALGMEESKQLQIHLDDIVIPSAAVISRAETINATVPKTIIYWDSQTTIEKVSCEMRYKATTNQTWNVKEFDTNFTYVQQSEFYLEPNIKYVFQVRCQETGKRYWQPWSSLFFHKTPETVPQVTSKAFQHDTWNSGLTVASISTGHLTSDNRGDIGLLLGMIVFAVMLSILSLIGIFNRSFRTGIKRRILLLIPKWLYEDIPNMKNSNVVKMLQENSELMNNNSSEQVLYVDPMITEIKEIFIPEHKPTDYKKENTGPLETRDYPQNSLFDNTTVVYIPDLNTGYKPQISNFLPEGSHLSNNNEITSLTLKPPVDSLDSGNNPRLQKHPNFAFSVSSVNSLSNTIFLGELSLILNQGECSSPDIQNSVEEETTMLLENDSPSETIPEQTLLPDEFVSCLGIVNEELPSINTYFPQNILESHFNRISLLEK

[15] = system: Rattus norvegicus; experiment: Anti-colitis activity in Sprague-Dawley rat model of TNBS-induced colitis assessed as reduction in localized lesions in mucosa and sub-mucosal regions at 20 mg/kg, po dosed 3 times per day for 8 days starting 24 hrs before TNBS injection by H and E staining based histological assay; format: functional, organism-based
[16] = target: T1, Interleukin-23 receptor; experiment: Binding affinity to human FC-tagged human interleukin-23 receptor by SPR assay
[17] = system: Rattus norvegicus; experiment: Anti-colitis activity in Sprague-Dawley rat model of TNBS-induced colitis assessed as induction of healing at necrosis sites in colon at 20 mg/kg, po dosed 3 times per day for 8 days starting 24 hrs before TNBS injection by H and E staining based histological assay; format: functional, organism-based
[18] = Inhibition of interleukin-23 binding to rat interleukin-23 receptor incubated for 2 hrs by competitive binding ELISA
[19] = system: Rattus norvegicus; experiment: Anti-colitis activity in Sprague-Dawley rat model of TNBS-induced colitis assessed as reduction in colon weight/colon length ratio at 20 mg/kg, po dosed 3 times per day for 8 days starting 24 hrs before TNBS injection; format: functional, organism-based
[20] = Half life in DTT at 50 uM up up to 120 mins by reverse phase HPLC and UV detection based assay; format: physicochemical
[21] = Binding affinity to human FC-tagged human recombinant interleukin-12 receptor beta1/human FC-tagged human interleukin-23 receptor by SPR assay
[22] = system: Rattus norvegicus; experiment: Anti-colitis activity in Sprague-Dawley rat model of TNBS-induced colitis assessed as reduction in inflammation at 20 mg/kg, po dosed 3 times per day for 8 days starting 24 hrs before TNBS injection; format: functional, organism-based
[23] = target: T2, Interleukin-12 receptor subunit beta-1 (Homo sapiens, UniProt P42701); experiment: Binding affinity to human FC-tagged human recombinant interleukin-12 receptor beta1 up to […] by SPR assay
[24] = Inhibition of interleukin-23 receptor in rat splenocytes assessed as reduction in IL23-stimulated IL-17A production incubated for 3 hrs by ELISA; format: cell-based
[25] = target: T1, Interleukin-23 receptor; experiment: Inhibition of interleukin-23 binding to human interleukin-23 receptor incubated for 2 hrs by competitive binding ELISA
[26] = Ratio of IC50 for inhibition of interleukin-23 receptor in rat splenocytes assessed as reduction in IL23-stimulated IL-17A production incubated for 3 hrs by ELISA to plasma concentration in Sprague-Dawley rat model of TNBS-induced colitis
[27] = organism: Homo sapiens; experiment: Binding affinity to human FC-tagged human recombinant interleukin-12 receptor beta1/human FC-tagged human interleukin-23 receptor assessed as association constant by SPR assay
[28] = target: T1, Interleukin-23 receptor; experiment: Inhibition of interleukin-23 receptor in human natural killer cells assessed as reduction in IL23/IL18-induced IFNgamma production incubated for 20 to 24 hrs by ELISA; format: cell-based
[29] = system: Rattus norvegicus; experiment: Anti-colitis activity in Sprague-Dawley rat model of TNBS-induced colitis assessed as reduction in colon wall thickness at 160 mg/kg/day, po starting 24 hrs before TNBS injection; format: functional, organism-based
[30] = Half life in human intestinal fluid at 20 uM by LC-MS/MS analysis; format: ADME
[31] = AUC in rat colon mucosa at 20 mg/kg, po; format: ADME, organism-based, Colonic mucosa; settings: in vivo
[32] = system: Rattus norvegicus; experiment: Anti-colitis activity in Sprague-Dawley rat model of TNBS-induced colitis assessed as reduction in inflammation at 160 mg/kg/day, po starting 24 hrs before TNBS injection; format: functional, organism-based
[33] = target: T2, Interleukin-12 receptor subunit beta-1; experiment: Binding affinity to human recombinant interleukin-12 receptor beta1 by SPR assay
[34] = Inhibition of interleukin-23 binding to cynomolgus monkey interleukin-23 receptor incubated for 2 hrs by competitive binding ELISA; design: species or system Macaca fascicularis
[35] = Half life in simulated intestinal fluid at 20 uM by LC-MS/MS analysis; format: ADME
[36] = system: Rattus norvegicus; experiment: Anti-colitis activity in Sprague-Dawley rat model of TNBS-induced colitis assessed as reduction in mucosal necrosis at 160 mg/kg/day, po starting 24 hrs before TNBS injection; format: functional, organism-based
[37] = Drug recovery in rat feces at 20 mg/kg, po; format: ADME, organism-based; settings: read-out: Drug recovery
[38] = target: T3, Interleukin-23 receptor (Homo sapiens) (UniProt Q5VWK5); experiment: Binding affinity to human FC-tagged human interleukin-23 receptor assessed as association constant by SPR assay
T3 sequence (whole entry): T1 sequence (Q5VWK5 whole entry)

[39] = Binding affinity to human FC-tagged human recombinant interleukin-12 receptor beta1/human FC-tagged human interleukin-23 receptor assessed as dissociation rate constant by SPR assay
[40] = target: T1, Interleukin-23 receptor; experiment: Binding affinity to human recombinant interleukin-23 receptor by SPR assay
[41] = Inhibition of interleukin-6 binding to human interleukin-6 receptor incubated for 2 hrs by competitive binding ELISA
[42] = system: Rattus norvegicus; experiment: Anti-colitis activity in Sprague-Dawley rat model of TNBS-induced colitis assessed as improvement in gross pathology scores at 20 mg/kg, po dosed 3 times per day for 8 days starting 24 hrs before TNBS injection; format: functional, organism-based
[43] = AUC in rat plasma at 20 mg/kg, po; format: ADME, organism-based
[44] = target: T1, Interleukin-23 receptor; experiment: Binding affinity to human FC-tagged human interleukin-23 receptor assessed as dissociation rate constant by SPR assay
[45] = AUC in rat small intestinal mucosa at 20 mg/kg, po; format: ADME, organism-based, Mucosa of small intestine; settings: in vivo
[46] = Ratio of IC50 for inhibition of interleukin-23 binding to rat interleukin-23 receptor incubated for 2 hrs by competitive binding ELISA to plasma concentration in Sprague-Dawley rat model of TNBS-induced colitis

COc1ccc(C[C@H](NC(=O)[C@H]2NC(=O)[C@H](CCC(N)=O)NC(=O)[C@H](Cc3c[nH]c4ccccc34)NC(=O)[C@H]([C@@H](C)O)NC(=O)[C@H](CCC(N)=O)NC(=O)[C@@H](NC(C)=O)C(C)(C)SSC2(C)C)C(=O)N[C@@H](Cc2ccc3ccccc3c2)C(=O)N[C@@](C)(CCCCN)C(=O)N[C@@H](CCC(=O)O)C(=O)N[C@@H](CC(N)=O)C(=O)NCC(N)=O)cc1
Activity [1]: Active | Activity [2]: Active | Activity [3]: Active | Ratio [4]: 97.36 g/cm | inhibition [5]: inactive | Activity [6]: Active | Activity [7]: Active | Activity [8]: Active | Activity [9]: 0.13% | Activity_index [10]: 0.61

CC(=O)N[C@H]1CCSC[C@@H](C(=O)N[C@@H](Cc2ccc(OCCN)cc2)C(=O)N[C@@H](Cc2c[nH]c3ccccc23)C(=O)N[C@@](C)(CCCCN)C(=O)N[C@@H](CCC(=O)O)C(=O)N[C@@H](CC(N)=O)C(=O)NCC(N)=O)NC(=O)[C@H](CCC(N)=O)NC(=O)[C@H](Cc2c[nH]c3ccccc23)NC(=O)[C@H]([C@@H](C)O)NC(=O)[C@H](CCC(N)=O)NC1=O
Activity [11]: Active | IC50 [12]: > 100000 nM | half-life at 20 µM [13]: 2 to 24 h | IC50 [14]: < 10 nM | Activity [15]: Active | Kd [16]: 2.42 nM | Activity [17]: Active | IC50 [18]: 10 to 25 nM | Activity [19]: Active | half-life at 50 µM [20]: > 2 h | Kd [21]: 2.56 nM | Activity [22]: Active | Activity [23]: inactive | IC50 [24]: 130 nM | IC50 [25]: 10 to 25 nM | Ratio [26]: <2 | Ka [27]: 1.59 ×10⁷ /M/s | IC50 [28]: 25 to 27 nM | Activity [29]: Active | half-life at 20 µM [30]: > 24 h | AUC [31]: 77 µg·h/g | Activity [32]: Active | Kd [33]: Not Active | IC50 [34]: 7 nM | half-life at 20 µM [35]: 6 to 24 h | Activity [36]: Active | dose excreted [37]: 40% | Ka [38]: 1.37 ×10⁷ /M/s | Kd [39]: 0.041 s⁻¹ | Kd [40]: 2.4 nM | IC50 [41]: > 100000 nM | Activity [42]: Active | AUC [43]: 300 ng·h/mL | Kd [44]: 0.033 s⁻¹ | AUC [45]: 355 µg·h/g | Ratio [46]: <2
